Test results as given in patent US6613718B2, “Aryl ether derivatives and processes for their preparation and herbicidal and desiccant compositions containing them” (Ishihara Sangyo Kaisha, Ltd., priority 2001, dated 2003).

Legend:
Format in all cases: in vivo
Conditions in all cases: 14 days after application
[1] = test system: velvetleaf (Abutilon theophrasti, ABUTH); assay: Pre-emerge greenhouse herbicide activity screening, phytotoxicity rating
Summary of the method: (§1)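 Greenhouse screen. Sowing preceded application by one day (pre-emergence) or 8-21 days (post-emergence). Doses spanned 15 to 1000 g ai/ha in acetone. Score at day 14: 0 no injury, 100 total kill.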

[2] = test system: ivyleaf morningglory (Ipomoea hederacea, IPOHE); assay: as above
Summary of the method: as §1

[3] = test system: sicklepod (Cassia obtusifolia, CASOB); assay: as above
Summary of the method: as §1

[4] = test system: johnsongrass (Sorghum halepense, SORHA); assay: as above
Summary of the method: as §1

[5] = test system: lambsquarters (Chenopodium album, CHEAL); assay: as above
Summary of the method: as §1

[6] = test system: large crabgrass (Digitaria sanguinalis, DIGSA); assay: as above
Summary of the method: as §1

[7] = test system: barnyardgrass (Echinochloa crus-galli, ECHCG); assay: as above
Summary of the method: as §1

[8] = test system: common ragweed (Ambrosia artemisiifolia L., AMBEL); assay: as above
Summary of the method: as §1

[9] = test system: redroot pigweed (Amaranthus retroflexus, AMARE); assay: as above
Summary of the method: as §1

[10] = test system: green foxtail (Setaria viridis, SETVI); assay: as above
Summary of the method: as §1

[11] = test system: velvetleaf (Abutilon theophrasti, ABUTH); assay: Post-emerge greenhouse herbicide activity screening, phytotoxicity rating
Summary of the method: as §1

[12] = test system: ivyleaf morningglory (Ipomoea hederacea, IPOHE); assay: as above
Summary of the method: as §1

[13] = test system: sicklepod (Cassia obtusifolia, CASOB); assay: as above
Summary of the method: as §1

[14] = test system: johnsongrass (Sorghum halepense, SORHA); assay: as above
Summary of the method: as §1

[15] = test system: lambsquarters (Chenopodium album, CHEAL); assay: as above
Summary of the method: as §1

[16] = test system: large crabgrass (Digitaria sanguinalis, DIGSA); assay: as above
Summary of the method: as §1

[17] = test system: barnyardgrass (Echinochloa crus-galli, ECHCG); assay: as above
Summary of the method: as §1

[18] = test system: common ragweed (Ambrosia artemisiifolia L., AMBEL); assay: as above
Summary of the method: as §1

[19] = test system: redroot pigweed (Amaranthus retroflexus, AMARE); assay: as above
Summary of the method: as §1

[20] = test system: green foxtail (Setaria viridis, SETVI); assay: as above
Summary of the method: as §1

[21] = test system: field corn (Zea mays L., var. Dekalb 535, CORN); assay: Pre-emerge greenhouse screening, crop safety (phytotoxicity rating)
Summary of the method: as §1

[22] = test system: soybean (Glycine max L., var. Pella 86, SOY); assay: as above
Summary of the method: as §1

[23] = test system: upland rice (Oryza sp., var.Tebonnet, RICE); assay: as above
Summary of the method: as §1

[24] = test system: soybean (Glycine max L., var. Pella 86, SOY); assay: Post-emerge greenhouse screening, crop safety (phytotoxicity rating)
Summary of the method: as §1

[25] = test system: upland rice (Oryza sp., var.Tebonnet, RICE); assay: as above
Summary of the method: as §1

[26] = test system: field corn (Zea mays L., var. Dekalb 535, CORN); assay: Post-emerge greenhouse screening, crop safety / corn selectivity (phytotoxicity rating)
Summary of the method: as §1

Structure (SMILES): Cn1c(=S)n(C)c(=O)n(-c2cc(Oc3ccccc3N)c(Cl)cc2F)c1=O [Compound 2-18]
- ABUTH phytotoxicity rating (0-100 scale) ([1]; 125 g ai/ha): 55
- ABUTH phytotoxicity rating (0-100 scale) ([1]; 250 g ai/ha): 60
- IPOHE phytotoxicity rating (0-100 scale) ([2]; 125 g ai/ha): 0
- IPOHE phytotoxicity rating (0-100 scale) ([2]; 250 g ai/ha): 10
- CASOB phytotoxicity rating (0-100 scale) ([3]; 125 g ai/ha): 20
- CASOB phytotoxicity rating (0-100 scale) ([3]; 250 g ai/ha): 35
- SORHA phytotoxicity rating (0-100 scale) ([4]; 125 g ai/ha): 35
- SORHA phytotoxicity rating (0-100 scale) ([4]; 250 g ai/ha): 75
- CHEAL phytotoxicity rating (0-100 scale) ([5]; 125 g ai/ha): 100
- CHEAL phytotoxicity rating (0-100 scale) ([5]; 250 g ai/ha): 100
- DIGSA phytotoxicity rating (0-100 scale) ([6]; 125 g ai/ha): 75
- DIGSA phytotoxicity rating (0-100 scale) ([6]; 250 g ai/ha): 80
- ECHCG phytotoxicity rating (0-100 scale) ([7]; 125 g ai/ha): 35
- ECHCG phytotoxicity rating (0-100 scale) ([7]; 250 g ai/ha): 60
- AMBEL phytotoxicity rating (0-100 scale) ([8]; 125 g ai/ha): 50
- AMBEL phytotoxicity rating (0-100 scale) ([8]; 250 g ai/ha): 55
- AMARE phytotoxicity rating (0-100 scale) ([9]; 125 g ai/ha): 99
- AMARE phytotoxicity rating (0-100 scale) ([9]; 250 g ai/ha): 100
- SETVI phytotoxicity rating (0-100 scale) ([10]; 125 g ai/ha): 60
- SETVI phytotoxicity rating (0-100 scale) ([10]; 250 g ai/ha): 95
- ABUTH phytotoxicity rating (0-100 scale) ([11]; 125 g ai/ha): 0
- ABUTH phytotoxicity rating (0-100 scale) ([11]; 250 g ai/ha): 40
- IPOHE phytotoxicity rating (0-100 scale) ([12]; 125 g ai/ha): 0
- IPOHE phytotoxicity rating (0-100 scale) ([12]; 250 g ai/ha): 0
- CASOB phytotoxicity rating (0-100 scale) ([13]; 125 g ai/ha): 0
- CASOB phytotoxicity rating (0-100 scale) ([13]; 250 g ai/ha): 0
- SORHA phytotoxicity rating (0-100 scale) ([14]; 125 g ai/ha): 0
- SORHA phytotoxicity rating (0-100 scale) ([14]; 250 g ai/ha): 0
- CHEAL phytotoxicity rating (0-100 scale) ([15]; 125 g ai/ha): 70
- CHEAL phytotoxicity rating (0-100 scale) ([15]; 250 g ai/ha): 70
- DIGSA phytotoxicity rating (0-100 scale) ([16]; 125 g ai/ha): 0
- DIGSA phytotoxicity rating (0-100 scale) ([16]; 250 g ai/ha): 0
- ECHCG phytotoxicity rating (0-100 scale) ([17]; 125 g ai/ha): 0
- ECHCG phytotoxicity rating (0-100 scale) ([17]; 250 g ai/ha): 35
- AMBEL phytotoxicity rating (0-100 scale) ([18]; 125 g ai/ha): 0
- AMBEL phytotoxicity rating (0-100 scale) ([18]; 250 g ai/ha): 0
- AMARE phytotoxicity rating (0-100 scale) ([19]; 125 g ai/ha): 80
- AMARE phytotoxicity rating (0-100 scale) ([19]; 250 g ai/ha): 80
- SETVI phytotoxicity rating (0-100 scale) ([20]; 125 g ai/ha): 50
- SETVI phytotoxicity rating (0-100 scale) ([20]; 250 g ai/ha): 50
- CORN crop damage, phytotoxicity rating (0-100 scale) ([21]; 125 g ai/ha): 0
- CORN crop damage, phytotoxicity rating (0-100 scale) ([21]; 250 g ai/ha): 5
- SOY crop damage, phytotoxicity rating (0-100 scale) ([22]; 125 g ai/ha): 0
- SOY crop damage, phytotoxicity rating (0-100 scale) ([22]; 250 g ai/ha): 0
- RICE crop damage, phytotoxicity rating (0-100 scale) ([23]; 125 g ai/ha): 0
- RICE crop damage, phytotoxicity rating (0-100 scale) ([23]; 250 g ai/ha): 0
- SOY crop damage, phytotoxicity rating (0-100 scale) ([24]; 125 g ai/ha): 0
- SOY crop damage, phytotoxicity rating (0-100 scale) ([24]; 250 g ai/ha): 0
- RICE crop damage, phytotoxicity rating (0-100 scale) ([25]; 125 g ai/ha): 0
- RICE crop damage, phytotoxicity rating (0-100 scale) ([25]; 250 g ai/ha): 0
- CORN crop damage, phytotoxicity rating (0-100 scale) ([26]; 125 g ai/ha): 0
- CORN crop damage, phytotoxicity rating (0-100 scale) ([26]; 250 g ai/ha): 0

Structure (SMILES): Cn1nc(-c2cc(Oc3ncccn3)c(Cl)cc2F)c(=O)n(C)c1=S [Compound 4-1, 6-[4-Chloro-2-fluoro-5-(2-pyrimidinyloxy)phenyl]-3,4-dihydro-2,4-dimethyl-3-thioxo-1,2,4-triazin-5(2H)-one]
- ABUTH phytotoxicity rating (0-100 scale) ([1]; 125 g ai/ha): 65
- ABUTH phytotoxicity rating (0-100 scale) ([1]; 250 g ai/ha): 95
- IPOHE phytotoxicity rating (0-100 scale) ([2]; 125 g ai/ha): 75
- IPOHE phytotoxicity rating (0-100 scale) ([2]; 250 g ai/ha): 100
- CASOB phytotoxicity rating (0-100 scale) ([3]; 125 g ai/ha): 50
- CASOB phytotoxicity rating (0-100 scale) ([3]; 250 g ai/ha): 60
- SORHA phytotoxicity rating (0-100 scale) ([4]; 125 g ai/ha): 99
- SORHA phytotoxicity rating (0-100 scale) ([4]; 250 g ai/ha): 100
- CHEAL phytotoxicity rating (0-100 scale) ([5]; 125 g ai/ha): 100
- CHEAL phytotoxicity rating (0-100 scale) ([5]; 250 g ai/ha): 100
- DIGSA phytotoxicity rating (0-100 scale) ([6]; 125 g ai/ha): 99
- DIGSA phytotoxicity rating (0-100 scale) ([6]; 250 g ai/ha): 100
- ECHCG phytotoxicity rating (0-100 scale) ([7]; 125 g ai/ha): 90
- ECHCG phytotoxicity rating (0-100 scale) ([7]; 250 g ai/ha): 99
- AMBEL phytotoxicity rating (0-100 scale) ([8]; 125 g ai/ha): 85
- AMBEL phytotoxicity rating (0-100 scale) ([8]; 250 g ai/ha): 85
- AMARE phytotoxicity rating (0-100 scale) ([9]; 125 g ai/ha): 100
- AMARE phytotoxicity rating (0-100 scale) ([9]; 250 g ai/ha): 100
- SETVI phytotoxicity rating (0-100 scale) ([10]; 125 g ai/ha): 100
- SETVI phytotoxicity rating (0-100 scale) ([10]; 250 g ai/ha): 100
- ABUTH phytotoxicity rating (0-100 scale) ([11]; 125 g ai/ha): 99
- ABUTH phytotoxicity rating (0-100 scale) ([11]; 250 g ai/ha): 100
- IPOHE phytotoxicity rating (0-100 scale) ([12]; 125 g ai/ha): 70
- IPOHE phytotoxicity rating (0-100 scale) ([12]; 250 g ai/ha): 70
- CASOB phytotoxicity rating (0-100 scale) ([13]; 125 g ai/ha): 55
- CASOB phytotoxicity rating (0-100 scale) ([13]; 250 g ai/ha): 55
- SORHA phytotoxicity rating (0-100 scale) ([14]; 125 g ai/ha): 50
- SORHA phytotoxicity rating (0-100 scale) ([14]; 250 g ai/ha): 75
- CHEAL phytotoxicity rating (0-100 scale) ([15]; 125 g ai/ha): 99
- CHEAL phytotoxicity rating (0-100 scale) ([15]; 250 g ai/ha): 100
- DIGSA phytotoxicity rating (0-100 scale) ([16]; 125 g ai/ha): 50
- DIGSA phytotoxicity rating (0-100 scale) ([16]; 250 g ai/ha): 60
- ECHCG phytotoxicity rating (0-100 scale) ([17]; 125 g ai/ha): 55
- ECHCG phytotoxicity rating (0-100 scale) ([17]; 250 g ai/ha): 75
- AMBEL phytotoxicity rating (0-100 scale) ([18]; 125 g ai/ha): 30
- AMBEL phytotoxicity rating (0-100 scale) ([18]; 250 g ai/ha): 60
- AMARE phytotoxicity rating (0-100 scale) ([19]; 125 g ai/ha): 100
- AMARE phytotoxicity rating (0-100 scale) ([19]; 250 g ai/ha): 100
- SETVI phytotoxicity rating (0-100 scale) ([20]; 125 g ai/ha): 50
- SETVI phytotoxicity rating (0-100 scale) ([20]; 250 g ai/ha): 60
- CORN crop damage, phytotoxicity rating (0-100 scale) ([21]; 125 g ai/ha): 0
- CORN crop damage, phytotoxicity rating (0-100 scale) ([21]; 250 g ai/ha): 10
- SOY crop damage, phytotoxicity rating (0-100 scale) ([22]; 125 g ai/ha): 0
- SOY crop damage, phytotoxicity rating (0-100 scale) ([22]; 250 g ai/ha): 0
- RICE crop damage, phytotoxicity rating (0-100 scale) ([23]; 125 g ai/ha): 50
- RICE crop damage, phytotoxicity rating (0-100 scale) ([23]; 250 g ai/ha): 60
- SOY crop damage, phytotoxicity rating (0-100 scale) ([24]; 125 g ai/ha): 50
- SOY crop damage, phytotoxicity rating (0-100 scale) ([24]; 250 g ai/ha): 50
- RICE crop damage, phytotoxicity rating (0-100 scale) ([25]; 125 g ai/ha): 0
- RICE crop damage, phytotoxicity rating (0-100 scale) ([25]; 250 g ai/ha): 15
- CORN crop damage, phytotoxicity rating (0-100 scale) ([26]; 125 g ai/ha): 5
- CORN crop damage, phytotoxicity rating (0-100 scale) ([26]; 250 g ai/ha): 15
